Laboratory results as given in US20240200005A1, “METHOD FOR DEVELOPING AND/OR REPROGRAMMING PLANT CELLULAR OBJECTS” (SCREENSYS GMBH, priority 2021, published 2024).

System: microspores of Brassica napus
Assay: Dose-response of TSA trigger on growth/reprogramming of microspores in microfluidic compartments (image-based size analysis)
Format: cell-based
Conditions: for percentage of total microspores larger than 45 μm (multicellular stage): after 3 days
Description: For the cultivation of the microspores, the desired compartment sequences were generated by application of the system as shown in FIG. 1. The core of the system 2 was a five-channel precision syringe pump 11 (NEMESYS Cetoni GmbH, Germany) which can feed up to five fluids 6a-6e carried in glass syringes 20 (SETonic GmbH, Germany). One channel was used for the delivery of perfluoro-methyldecalin (PP9) as carrier fluid 6/6a, which is immiscible with the other fluids and thus separates the individual aqueous compartments 4 from one another inside the generated compartment 4 sequence. Another channel was used for 1×NLN13 (recipe below) medium 6b to dilute the medium with the microspores 14 and adjust the total volume of the compartments 4, and thus the concentration of the plant cellular objects 14 and the other substances, during formation. Two different trigger solutions 6c, 6d were used in channels three and four. Channel five was used for dosing the cell suspension, i.e. the medium with the plant cellular objects 14, itself. A cell container vial 12 was employed to feed the microspores 14 into the compartment generator 10. For this, a small conical glass vial 12 with a capacity of about 2 ml was used (See FIG. 1). The vial 12 was filled with the microspore suspension, i.e. medium with plant cellular objects 14, and closed airtight and free of air bubbles. The initial microspore density in the vial 12 was about 700.000 microspores/ml.
By syringe pump-controlled addition of medium 6e into the container 12 the suspended microspores 14 were fed through the container outlet conduit 16, a 0.2 mm ID FEP tube, into the compartment generator 10. ID stands for inner diameter. Instead of medium 6e it is also contemplated to add carrier fluid 6 to the container 12 with the suspended microspores. The individual syringes 20 were connected with the compartment generator 10 via respective conduits 17. Compartments 4 of about 120 nL volume each were formed and forwarded in a 0.5 mm ID PTFE tube as the microfluidic conduit 8 for incubation. A detailed description of the used compartment generator 10 can be found in “Cao J, Richter F, Kastl M, Erdmann J, Burgold C, Dittrich D, Schneider S, Köhler J M, Groß GA (2020) Droplet-Based Screening for the Investigation of Microbial Nonlinear Dose-Response Characteristics System, Background and Examples. Micromachines. 10.3390/mi1106057”, which is incorporated herein in its entirety by reference. For sufficient diffusive aeration during long-time incubation times, PTFE tubes with low wall thickness were used (inner diameter: 0.5 mm, outer diameter: 1.0 mm). Typical flow rate conditions of about 30 μl/min for the aqueous phases, i.e. the sample fluid, i.e. the medium 6b, the medium with the plant cellular objects, and the trigger solutions 6c, 6d, and about 100 μl/min for the embedding phase, i.e. the carrier fluid 6a, were used. […] However, other tube materials and dimensions may be used.
For a dose-response experiment the Trichostatin A (TSA) was chosen as a trigger. The stimulating effect of TSA on the germination of the microspores 14 was investigated in a concentration range from 0.01 μM up to 5 μM. Therefore, TSA stock solutions of 0.2 μM TSA 6c and 10 μM TSA 6d were used in the syringes 20 for triggers 1 and 2. The application of an appropriate flow rate program yielded the compartment 4 sequence with the desired concentrations of TSA in the compartments 4, as shown in FIG. 2. The resulting compartments 4 were composed of 50% volume microspore suspension, 50%-0% dilution medium 6b and 0-50% of the trigger solution 6c, 6d. Depending on the intended concentration of TSA in the generated compartments 4, either 0.2 μM TSA solution 6c or 10 μM TSA solution 6d was added to the generated compartments 4. The flow rate for the carrier medium 6e, here PP9, was kept constant at 50 μl/min. […]

CC(/C=C/C(=O)NO)=C\[C@@H](C)C(=O)c1ccc(N(C)C)cc1 [TSA, Trichostatin A]
percentage of microspores larger than 35 μm (0.01 μM TSA, after 3 days incubation at 32° C.): about 3% | change of percentage of microspores larger than 35 μm (0.01 μM TSA, after 6 days versus 3 days): increased only marginally | percentage of total microspores larger than 45 μm (multicellular stage) (0.05 μM TSA): about 1% | percentage of total microspores with a diameter of at least 35 μm (0.05 μM TSA, after 6 days): about 8% | percentage of very large microspores (>45 μm) (0.05 μM TSA, after 6 days): about 2% | percentage of total microspores larger than 45 μm (multicellular stage) (0.1 μM TSA): about 1% | percentage of microspores larger than 35 μm (0.1 μM TSA, after 3 days incubation at 32° C.): ~9% | percentage of microspores larger than 35 μm (total column) (0.1 μM TSA, after 6 days): 11.4% | proportion of microspores larger than 45 μm (0.1 μM TSA, after 6 days): 4.4% | percentage of total microspores larger than 45 μm (multicellular stage) (0.35 μM TSA): about 1% | percentage of microspores larger than 35 μm (0.35 μM TSA, after 3 days incubation at 32° C.): 8% | percentage of microspores larger than 35 μm (0.35 μM TSA, after 6 days): 11.7% | percentage of very large microspores (>45 μm) (0.35 μM TSA, after 6 days): 3.8% | percentage of microspores larger than 35 μm (0.5 μM TSA, after 3 days incubation at 32° C.): about 4.4% | percentage of total microspores with a diameter of at least 35 μm (0.5 μM TSA, after 6 days): about 8% | percentage of very large microspores (>45 μm) (0.5 μM TSA, after 6 days): about 2% | percentage of microspores larger than 35 μm (1 μM TSA, after 3 days incubation at 32° C.): ~4% | green portion of column (microspores larger than 45 μm) (1 μM TSA, after 6 days): approximately 1.7% | percentage of microspores larger than 35 μm (total column height) (1 μM TSA, after 6 days): 6.4% | percentage of microspores larger than 35 μm (2 μM TSA, after 3 days incubation at 32° C.): ~0% | percentage of microspores larger than 35 μm (2 μM TSA, after 6 days): about 1.3% | percentage of microspores larger than 35 μm (5 μM TSA, after 3 days incubation at 32° C.): 0% | growth of microspores (5 μM TSA, after 6 days): without any recognizable growth | percentage of microspores larger than 35 μm (0.05 M TSA (so in the source), after 3 days incubation at 32° C.): approximately 7.6% | lethal dose (microspores, no recognizable growth after 6 days): 5 µM
